Legend:
Erysiphe polygoni = assay: whole plant or invertebrate; conditions: foliar, 24 h, read-out: Percent Disease Control, curative, bean powdery mildew
Pythium ultimum = assay: Mycelial growth test; format: cell-based; conditions: PU; for inhibition at 5 ppm / inhibition at 10 ppm / inhibition at 20 ppm / inhibition at 40 ppm: Globisporangium ultimum, 72 h, read-out: Percent Fungus Growth Inhibition

O=c1c(Cl)nsnc1Oc1cccc(Cl)c1 [Compound 13, 3-chloro-5-(3-chlorophenoxy)-4H--1,2,6-thiadiazin-4-one]
pest or weed control at 150 ppm (Erysiphe polygoni): 100% | inhibition at 5 ppm (Pythium ultimum): 31% | inhibition at 10 ppm (Pythium ultimum): 73% | inhibition at 20 ppm (Pythium ultimum; 20 ppm): 89% | inhibition at 40 ppm (Pythium ultimum): 100%

O=C(O)c1ccc(Oc2nsnc(Cl)c2=O)cc1 [Compound 50, 3-(4-carboxyphenoxy)-5-chloro-4H--1,2,6-thiadiazin-4-one]
pest or weed control at 150 ppm (Erysiphe polygoni): 0% | inhibition at 5 ppm (Pythium ultimum): 20% | inhibition at 10 ppm (Pythium ultimum): 0% | inhibition at 20 ppm (Pythium ultimum; 20 ppm): 47% | inhibition at 40 ppm (Pythium ultimum): 100%

CC(=O)Nc1ccc(Oc2nsnc(Cl)c2=O)cc1 [Compound 8, 5-(4-acetylaminophenoxy)-3-chloro-4H--1,2,6-thiadiazin-4-one]
pest or weed control at 150 ppm (Erysiphe polygoni): 0% | inhibition at 5 ppm (Pythium ultimum): 0% | inhibition at 10 ppm (Pythium ultimum): 100% | inhibition at 20 ppm (Pythium ultimum; 20 ppm): 100% | inhibition at 40 ppm (Pythium ultimum): 100%

Cc1cc(Cl)c(Oc2nsnc(Cl)c2=O)cc1C [Compound 58, 3-chloro-5-[(2-chloro-4,5-dimethyl)phenoxy]-4H--1,2,6-thiadiazin-4-one]
pest or weed control at 150 ppm (Erysiphe polygoni): 50% | inhibition at 5 ppm (Pythium ultimum): 13% | inhibition at 10 ppm (Pythium ultimum): 24% | inhibition at 20 ppm (Pythium ultimum; 20 ppm): 0% | inhibition at 40 ppm (Pythium ultimum): 13%

N#CCc1ccc(Oc2nsnc(Cl)c2=O)cc1 [Compound 46, 3-chloro-5-[(4-cyanomethyl)-phenoxy]4H--1,2,6-thiadiazin-4-one]
pest or weed control at 150 ppm (Erysiphe polygoni): 0% | inhibition at 5 ppm (Pythium ultimum): 0% | inhibition at 10 ppm (Pythium ultimum): 40% | inhibition at 20 ppm (Pythium ultimum; 20 ppm): 87% | inhibition at 40 ppm (Pythium ultimum): 100%

O=c1c(Cl)nsnc1Oc1ccc(Cl)cc1 [Compound 12, 3-chloro-5-(4-chlorophenoxy)-4H--1,2,6-thiadiazin-4-one]
pest or weed control at 150 ppm (Erysiphe polygoni): 50% | inhibition at 5 ppm (Pythium ultimum): 42% | inhibition at 10 ppm (Pythium ultimum): 100% | inhibition at 20 ppm (Pythium ultimum; 20 ppm): 100% | inhibition at 40 ppm (Pythium ultimum): 100%

CNC(=O)Nc1ccc(Oc2nsnc(Cl)c2=O)cc1 [Compound 28, 3-chloro-5-[4-(3-methylureido)-phenoxy]-4H--1,2,6-thiadiazin-4-one]
pest or weed control at 150 ppm (Erysiphe polygoni): 50% | inhibition at 5 ppm (Pythium ultimum): 0% | inhibition at 10 ppm (Pythium ultimum): 80% | inhibition at 20 ppm (Pythium ultimum; 20 ppm): 91% | inhibition at 40 ppm (Pythium ultimum): 100%

CC(=O)c1cccc(Oc2nsnc(Cl)c2=O)c1 [Compound 48, 3-(3-acetylphenoxy)-5-chloro-4H--1,2,6-thiadiazin-4-one]
pest or weed control at 150 ppm (Erysiphe polygoni): 0% | inhibition at 5 ppm (Pythium ultimum): 78% | inhibition at 10 ppm (Pythium ultimum): 42% | inhibition at 20 ppm (Pythium ultimum; 20 ppm): 100% | inhibition at 40 ppm (Pythium ultimum): 100%

O=c1c(Cl)nsnc1Oc1ccccc1 [Compound 2, 3-chloro-5-phenoxy-4H--1,2,6-thiadiazin-4-one]
pest or weed control at 150 ppm (Erysiphe polygoni): 100% | inhibition at 5 ppm (Pythium ultimum): 0% | inhibition at 10 ppm (Pythium ultimum): 42% | inhibition at 20 ppm (Pythium ultimum; 20 ppm): 100% | inhibition at 40 ppm (Pythium ultimum): 100%

Cc1ccccc1Oc1nsnc(Cl)c1=O [Compound 22, 3-chloro-5-(2-methylphenoxy)-4H--1,2,6-thiadiazin-4-one]
pest or weed control at 150 ppm (Erysiphe polygoni): 100% | inhibition at 5 ppm (Pythium ultimum): 20% | inhibition at 10 ppm (Pythium ultimum): 64% | inhibition at 20 ppm (Pythium ultimum; 20 ppm): 96% | inhibition at 40 ppm (Pythium ultimum): 100%

CS(=O)(=O)c1ccc(Oc2nsnc(Cl)c2=O)cc1 [Compound 41, 3-chloro-5-[(4-methylsulfonyl)phenoxy]-4H--1,2,6-thiadiazin-4-one]
pest or weed control at 150 ppm (Erysiphe polygoni): 0% | inhibition at 5 ppm (Pythium ultimum): 0% | inhibition at 10 ppm (Pythium ultimum): 100% | inhibition at 20 ppm (Pythium ultimum; 20 ppm): 100% | inhibition at 40 ppm (Pythium ultimum): 100%

CCOC(=O)c1ccc(Oc2nsnc(Cl)c2=O)cc1 [Compound 7, 3-chloro-5-(4-ethoxycarbonylphenoxy)-4H--1,2,6-thiadiazin-4-one]
pest or weed control at 150 ppm (Erysiphe polygoni): 0% | inhibition at 5 ppm (Pythium ultimum): 11% | inhibition at 10 ppm (Pythium ultimum): 29% | inhibition at 20 ppm (Pythium ultimum; 20 ppm): 80% | inhibition at 40 ppm (Pythium ultimum): 100%

O=C(Nc1ccccc1)Nc1ccc(Oc2nsnc(Cl)c2=O)cc1 [Compound 29, 3-chloro-5-[4-(3-phenylureido)-phenoxy]-4H--1,2,6-thiadiazin-4-one]
pest or weed control at 150 ppm (Erysiphe polygoni): 0% | inhibition at 5 ppm (Pythium ultimum): 0% | inhibition at 10 ppm (Pythium ultimum): 0% | inhibition at 20 ppm (Pythium ultimum; 20 ppm): 0% | inhibition at 40 ppm (Pythium ultimum): 0%

O=c1c(Cl)nsnc1Oc1ccc(F)cc1 [Compound 11, 3-chloro-5-(4-fluorophenoxy)-4H--1,2,6-thiadiazin-4-one]
pest or weed control at 150 ppm (Erysiphe polygoni): 100% | inhibition at 5 ppm (Pythium ultimum): 0% | inhibition at 10 ppm (Pythium ultimum): 18% | inhibition at 20 ppm (Pythium ultimum; 20 ppm): 82% | inhibition at 40 ppm (Pythium ultimum): 100%

CCCCOc1ccc(Oc2nsnc(Cl)c2=O)cc1 [Compound 6, 3-chloro-5-(4-n-butoxyphenoxy)-4H--1,2,6-thiadiazin-4-one]
pest or weed control at 150 ppm (Erysiphe polygoni): 100% | inhibition at 5 ppm (Pythium ultimum): 0% | inhibition at 10 ppm (Pythium ultimum): 0% | inhibition at 20 ppm (Pythium ultimum; 20 ppm): 0% | inhibition at 40 ppm (Pythium ultimum): 22%

Cc1ccc(Oc2nsnc(Cl)c2=O)c(Br)c1 [Compound 57, 3-[(2-bromo-4-methyl)-phenoxy]-5-chloro-4H--1,2,6-thiadiazin-4-one]
pest or weed control at 150 ppm (Erysiphe polygoni): 100% | inhibition at 5 ppm (Pythium ultimum): 42% | inhibition at 10 ppm (Pythium ultimum): 60% | inhibition at 20 ppm (Pythium ultimum; 20 ppm): 100% | inhibition at 40 ppm (Pythium ultimum): 100%

Cc1cc(Cl)ccc1Oc1nsnc(Cl)c1=O [Compound 55, 3-chloro-5-(4-chloro-2-methylphenoxy)-4H--1,2,6-thiadiazin-4-one]
pest or weed control at 150 ppm (Erysiphe polygoni): 50% | inhibition at 5 ppm (Pythium ultimum): 42% | inhibition at 10 ppm (Pythium ultimum): 64% | inhibition at 20 ppm (Pythium ultimum; 20 ppm): 33% | inhibition at 40 ppm (Pythium ultimum): 47%

CC(=O)c1ccc(Oc2nsnc(Cl)c2=O)cc1 [Compound 47, 3-(4-acetylphenoxy)-5-chloro-4H--1,2,6-thiadiazin-4-one]
pest or weed control at 150 ppm (Erysiphe polygoni): 0% | inhibition at 5 ppm (Pythium ultimum): 71% | inhibition at 10 ppm (Pythium ultimum): 100% | inhibition at 20 ppm (Pythium ultimum; 20 ppm): 100% | inhibition at 40 ppm (Pythium ultimum): 100%

Cc1cccc(Oc2nsnc(Cl)c2=O)c1 [Compound 21, 3-chloro-5-(3-methylphenoxy)-4H--1,2,6-thiadiazin-4-one]
pest or weed control at 150 ppm (Erysiphe polygoni): 100% | inhibition at 5 ppm (Pythium ultimum): 27% | inhibition at 10 ppm (Pythium ultimum): 33% | inhibition at 20 ppm (Pythium ultimum; 20 ppm): 100% | inhibition at 40 ppm (Pythium ultimum): 100%

O=C(Nc1ccccc1)Oc1ccc(Oc2nsnc(Cl)c2=O)cc1 [Compound 37, 3-chloro-5-[4-(phenylaminocarbonyloxy)phenoxy]-4H-1,2,6,-thiadiazin-4-one]
pest or weed control at 150 ppm (Erysiphe polygoni): 0% | inhibition at 5 ppm (Pythium ultimum): 100% | inhibition at 10 ppm (Pythium ultimum): 0% | inhibition at 20 ppm (Pythium ultimum; 20 ppm): 20% | inhibition at 40 ppm (Pythium ultimum): 100%

Cc1cc(Oc2nsnc(Cl)c2=O)ccc1Cl [Compound 54, 3-chloro-5-(4-chloro-3-methylphenoxy)-4H--1,2,6-thiadiazin-4-one]
pest or weed control at 150 ppm (Erysiphe polygoni): 0% | inhibition at 5 ppm (Pythium ultimum): 42% | inhibition at 10 ppm (Pythium ultimum): 60% | inhibition at 20 ppm (Pythium ultimum; 20 ppm): 71% | inhibition at 40 ppm (Pythium ultimum): 87%

Cc1cccc(C)c1Oc1nsnc(Cl)c1=O [Compound 24, 3-chloro-5-(2,6-dimethylphenoxy)-4H--1,2,6-thiadiazin-4-one]
pest or weed control at 150 ppm (Erysiphe polygoni): 100% | inhibition at 5 ppm (Pythium ultimum): 0% | inhibition at 10 ppm (Pythium ultimum): 47% | inhibition at 20 ppm (Pythium ultimum; 20 ppm): 64% | inhibition at 40 ppm (Pythium ultimum): 100%

CC(=O)c1ccccc1Oc1nsnc(Cl)c1=O [Compound 49, 3-(2-acetylphenoxy)-5-chloro-4H--1,2,6-thiadiazin-4-one]
pest or weed control at 150 ppm (Erysiphe polygoni): 0% | inhibition at 5 ppm (Pythium ultimum): 47% | inhibition at 10 ppm (Pythium ultimum): 87% | inhibition at 20 ppm (Pythium ultimum; 20 ppm): 96% | inhibition at 40 ppm (Pythium ultimum): 100%

O=c1c(Cl)nsnc1Oc1ccc(Cl)cc1Cl [Compound 17, 3-chloro-5-(2,4-dichlorophenoxy)-4H--1,2,6-thiadiazin-4-one]
pest or weed control at 150 ppm (Erysiphe polygoni): 100% | inhibition at 5 ppm (Pythium ultimum): 42% | inhibition at 10 ppm (Pythium ultimum): 80% | inhibition at 20 ppm (Pythium ultimum; 20 ppm): 100% | inhibition at 40 ppm (Pythium ultimum): 100%

O=c1c(Cl)nsnc1Oc1cc(Cl)cc(Cl)c1 [Compound 20, 3-chloro-5-(3,5-dichlorophenoxy)-4H--1,2,6-thiadiazin-4-one]
pest or weed control at 150 ppm (Erysiphe polygoni): 100% | inhibition at 5 ppm (Pythium ultimum): 53% | inhibition at 10 ppm (Pythium ultimum): 91% | inhibition at 20 ppm (Pythium ultimum; 20 ppm): 91% | inhibition at 40 ppm (Pythium ultimum): 100%

Nc1ccc(Oc2nsnc(Cl)c2=O)cc1 [Compound 26, 5-(4-aminophenoxy)-3-chloro-4H--1,2,6-thiadiazin-4-one]
pest or weed control at 150 ppm (Erysiphe polygoni): 0% | inhibition at 5 ppm (Pythium ultimum): 0% | inhibition at 10 ppm (Pythium ultimum): 0% | inhibition at 40 ppm (Pythium ultimum): 100% | Percent Fungus Growth Inhibition (Pythium ultimum; 20 ppm, 72 hours): 13%

O=c1c(Cl)nsnc1Oc1ccc([N+](=O)[O-])cc1 [Compound 9, 3-chloro-5-(4-nitrophenoxy)-4H--1,2,6-thiadiazin-4-one]
pest or weed control at 150 ppm (Erysiphe polygoni): 0% | inhibition at 5 ppm (Pythium ultimum): 0% | inhibition at 10 ppm (Pythium ultimum): 80% | inhibition at 20 ppm (Pythium ultimum; 20 ppm): 71% | inhibition at 40 ppm (Pythium ultimum): 100%

O=c1c(Cl)nsnc1Oc1ccc(Br)cc1 [Compound 15, 3-chloro-5-(4-bromophenoxy)-4H--1,2,6-thiadiazin-4-one]
pest or weed control at 150 ppm (Erysiphe polygoni): 100% | inhibition at 5 ppm (Pythium ultimum): 47% | inhibition at 10 ppm (Pythium ultimum): 76% | inhibition at 20 ppm (Pythium ultimum; 20 ppm): 80% | inhibition at 40 ppm (Pythium ultimum): 76%
